Results taken from ChEMBL document CHEMBL3808392, “Design, synthesis and biological evaluation of 5-fluorouracil-derived benzimidazoles as novel type of potential antimicrobial agents” (2016).
Converted amounts (≈) assume the structure as drawn. The source made the active and inactive calls. No cut-off for these calls is given here.

Legend:
Escherichia coli [1] = experiment: Antimicrobial activity against Escherichia coli JM109 after 24 hrs by microbroth dilution method; type: functional; conditions: JM109, 24 h
Escherichia coli [2] = experiment: Antimicrobial activity against Escherichia coli DH52 after 24 hrs by microbroth dilution method; type: functional; conditions: DH52, 24 h
Staphylococcus aureus [3] = experiment: Antimicrobial activity against methicillin-resistant Staphylococcus aureus N315 after 24 hrs by microbroth dilution method; type: functional; conditions: N315, 24 h
Candida albicans = experiment: Antimicrobial activity against Candida albicans ATCC 10231 after 24 hrs by microbroth dilution method; type: functional; conditions: ATCC 10231, 24 h
Staphylococcus aureus [4] = experiment: Antimicrobial activity against Staphylococcus aureus ATCC 25923 after 24 hrs by microbroth dilution method; type: functional; conditions: ATCC 25923, 24 h
[5] = Antimicrobial activity against Bacillus proteus ATCC 13315 after 24 hrs by microbroth dilution method; type: functional; conditions: ATCC 13315, 24 h
Bacillus spizizenii = experiment: Antimicrobial activity against Bacillus subtilis ATCC 6633 after 24 hrs by microbroth dilution method; type: functional; conditions: ATCC 6633, 24 h
Candida = experiment: Antimicrobial activity against Candida mycoderma ATCC 9888 after 24 hrs by microbroth dilution method; type: functional; conditions: ATCC 9888, 24 h
Aspergillus flavus = experiment: Antimicrobial activity against Aspergillus flavus ATCC 204304 after 24 hrs by microbroth dilution method; type: functional; conditions: ATCC 204304, 24 h
Saccharomyces cerevisiae [6] = experiment: Antimicrobial activity against Saccharomyces cerevisiae after 24 hrs by microbroth dilution method; type: functional
Micrococcus luteus = experiment: Antimicrobial activity against Micrococcus luteus ATCC 4698 after 24 hrs by microbroth dilution method; type: functional; conditions: ATCC 4698, 24 h
Salmonella typhi = experiment: Antimicrobial activity against Bacillus typhi after 24 hrs by microbroth dilution method; type: functional, Salmonella enterica subsp. enterica serovar Typhi; conditions: Salmonella enterica
Calf thymus DNA [7] = experiment: Competitive binding affinity to calf thymus DNA assessed as compound-DNA complex formation at 0.74 to 2.18x10'-5 mol/l by UV-visible spectroscopy in presence of neutral red dye; type: nucleic-acid assay; conditions: Bos taurus
Saccharomyces cerevisiae [8] = experiment: Potency index, ratio of fluconazole MIC to compound MIC for antimicrobial activity against Saccharomyces cerevisiae; type: functional
Calf thymus DNA [9] = experiment: Binding affinity to calf thymus DNA assessed as compound-DNA complex formation at 4.87x10'-5 mol/l by fluorescence analysis; type: nucleic-acid assay; conditions: Bos taurus
Staphylococcus aureus [10] = experiment: Potency index, ratio of chloromycin MIC to compound MIC for antimicrobial activity against methicillin-resistant Staphylococcus aureus N315; type: functional
Calf thymus DNA [11] = experiment: Binding affinity to calf thymus DNA assessed as compound-DNA complex formation by fluorescence analysis in presence of quencher potassium iodide; type: nucleic-acid assay; conditions: Bos taurus
Staphylococcus aureus [12] = experiment: Potency index, ratio of norfloxacin MIC to compound MIC for antimicrobial activity against methicillin-resistant Staphylococcus aureus N315; type: functional
Calf thymus DNA [13] = experiment: Binding affinity to calf thymus DNA assessed as compound-DNA complex formation by UV-visible spectroscopy; type: nucleic-acid assay; conditions: Bos taurus

Structure (SMILES) | MIC (Escherichia coli [1]) | MIC (Escherichia coli [2]) | MIC (Staphylococcus aureus [3]) | MIC (Candida albicans) | MIC (Staphylococcus aureus [4]) | MIC [5] | MIC (Bacillus spizizenii) | MIC (Candida) | MIC (Aspergillus flavus) | MIC (Saccharomyces cerevisiae [6]) | MIC (Micrococcus luteus) | MIC (Salmonella typhi) | Activity (Calf thymus DNA [7]) | Ratio (Saccharomyces cerevisiae [8]) | Activity (Calf thymus DNA [9]) | Ratio (Staphylococcus aureus [10]) | KSV (Calf thymus DNA [11]) | Ratio (Staphylococcus aureus [12]) | K (Calf thymus DNA [13])
O=c1c(F)cn(Cc2nc3ccccc3n2Cc2ccc([N+](=O)[O-])cc2)c(=O)n1Cc1ccc([N+](=O)[O-])cc1 | > 512 µg/mL | > 512 µg/mL | > 512 µg/mL | > 512 µg/mL | > 512 µg/mL | > 512 µg/mL | 32 µg/mL (≈ 60.3 µM) | > 512 µg/mL | > 512 µg/mL | > 512 µg/mL | > 512 µg/mL | 32 µg/mL (≈ 60.3 µM) |  |  |  |  |  |  | 
O=c1c(F)cn(Cc2nc3ccccc3n2Cc2cccc(F)c2)c(=O)n1Cc1cccc(F)c1 | 8 µg/mL (≈ 16.8 µM) | 2 µg/mL (≈ 4.2 µM) | 2 µg/mL (≈ 4.2 µM) | 32 µg/mL (≈ 67.2 µM) | 4 µg/mL (≈ 8.4 µM) | 4 µg/mL (≈ 8.4 µM) | 16 µg/mL (≈ 33.6 µM) | 32 µg/mL (≈ 67.2 µM) | 8 µg/mL (≈ 16.8 µM) | 1 µg/mL (≈ 2.1 µM) | 64 µg/mL (≈ 134 µM) | 8 µg/mL (≈ 16.8 µM) | Active | 16 | Active | 8 | 6.45 L/mol | 4 | 3.89 ×10⁴ L/mol
CCCCCCCCn1c(=O)c(F)cn(Cc2nc3ccccc3n2CCCCCCCC)c1=O | 512 µg/mL (≈ 1060 µM) | 512 µg/mL (≈ 1060 µM) | > 512 µg/mL | 64 µg/mL (≈ 132 µM) | > 512 µg/mL | > 512 µg/mL | 512 µg/mL (≈ 1060 µM) | 512 µg/mL (≈ 1060 µM) | 512 µg/mL (≈ 1060 µM) | > 512 µg/mL | 512 µg/mL (≈ 1060 µM) | 512 µg/mL (≈ 1060 µM) |  |  |  |  |  |  | 
CCn1c(=O)c(F)cn(Cc2nc3ccccc3n2CC)c1=O | 16 µg/mL (≈ 50.6 µM) | 32 µg/mL (≈ 101 µM) | 64 µg/mL (≈ 202 µM) | 64 µg/mL (≈ 202 µM) | 32 µg/mL (≈ 101 µM) | 32 µg/mL (≈ 101 µM) | 32 µg/mL (≈ 101 µM) | 32 µg/mL (≈ 101 µM) | 64 µg/mL (≈ 202 µM) | 32 µg/mL (≈ 101 µM) | 32 µg/mL (≈ 101 µM) | 64 µg/mL (≈ 202 µM) |  |  |  |  |  |  | 
CCCn1c(=O)c(F)cn(Cc2nc3ccccc3n2CCC)c1=O | 16 µg/mL (≈ 46.5 µM) | 32 µg/mL (≈ 92.9 µM) | 64 µg/mL (≈ 186 µM) | 64 µg/mL (≈ 186 µM) | 32 µg/mL (≈ 92.9 µM) | 128 µg/mL (≈ 372 µM) | 64 µg/mL (≈ 186 µM) | 32 µg/mL (≈ 92.9 µM) | 64 µg/mL (≈ 186 µM) | 128 µg/mL (≈ 372 µM) | 32 µg/mL (≈ 92.9 µM) | 64 µg/mL (≈ 186 µM) |  |  |  |  |  |  | 
O=c1c(F)cn(Cc2nc3ccccc3n2Cc2cccc(Cl)c2)c(=O)n1Cc1cccc(Cl)c1 | 128 µg/mL (≈ 251 µM) | 16 µg/mL (≈ 31.4 µM) | 128 µg/mL (≈ 251 µM) | 64 µg/mL (≈ 126 µM) | 512 µg/mL (≈ 1010 µM) | 64 µg/mL (≈ 126 µM) | 64 µg/mL (≈ 126 µM) | 64 µg/mL (≈ 126 µM) | 64 µg/mL (≈ 126 µM) | 64 µg/mL (≈ 126 µM) | 128 µg/mL (≈ 251 µM) | 64 µg/mL (≈ 126 µM) |  |  |  |  |  |  | 
O=c1c(F)cn(Cc2nc3ccccc3n2Cc2ccc(F)cc2)c(=O)n1Cc1ccc(F)cc1 | > 512 µg/mL | > 512 µg/mL | 512 µg/mL (≈ 1070 µM) | > 512 µg/mL | > 512 µg/mL | > 512 µg/mL | > 512 µg/mL | > 512 µg/mL | 512 µg/mL (≈ 1070 µM) | > 512 µg/mL | > 512 µg/mL | 512 µg/mL (≈ 1070 µM) |  |  |  |  |  |  | 
O=c1[nH]c(=O)n(Cc2nc3cc(F)ccc3[nH]2)cc1F | 128 µg/mL (≈ 460 µM) | 32 µg/mL (≈ 115 µM) | 16 µg/mL (≈ 57.5 µM) | 2 µg/mL (≈ 7.19 µM) | 8 µg/mL (≈ 28.8 µM) | 16 µg/mL (≈ 57.5 µM) | 128 µg/mL (≈ 460 µM) | 128 µg/mL (≈ 460 µM) | 128 µg/mL (≈ 460 µM) | 8 µg/mL (≈ 28.8 µM) | 16 µg/mL (≈ 57.5 µM) | 32 µg/mL (≈ 115 µM) |  |  |  |  |  |  | 
O=c1c(F)cn(Cc2nc3ccccc3n2Cc2ccc(Cl)cc2)c(=O)n1Cc1ccc(Cl)cc1 | > 512 µg/mL | > 512 µg/mL | > 512 µg/mL | 4 µg/mL (≈ 7.85 µM) | > 512 µg/mL | > 512 µg/mL | > 512 µg/mL | > 512 µg/mL | > 512 µg/mL | > 512 µg/mL | > 512 µg/mL | 512 µg/mL (≈ 1010 µM) |  |  |  |  |  |  | 
OC(Cn1cncn1)(Cn1cncn1)c1ccc(F)cc1F [FLUCONAZOLE] |  |  |  | 1 µg/mL (≈ 3.27 µM) |  |  |  | 4 µg/mL (≈ 13.1 µM) | 256 µg/mL (≈ 836 µM) | 16 µg/mL (≈ 52.2 µM) |  |  |  |  |  |  |  |  | 
Cc1ccc(Cn2c(=O)c(F)cn(Cc3nc4ccccc4n3Cc3ccc(C)cc3)c2=O)cc1 | > 512 µg/mL | 128 µg/mL (≈ 273 µM) | > 512 µg/mL | > 512 µg/mL | > 512 µg/mL | > 512 µg/mL | > 512 µg/mL | > 512 µg/mL | > 512 µg/mL | > 512 µg/mL | > 512 µg/mL | 512 µg/mL (≈ 1090 µM) |  |  |  |  |  |  | 
CCn1cc(C(=O)O)c(=O)c2cc(F)c(N3CCNCC3)cc21 [NORFLOXACIN] | 1 µg/mL (≈ 3.13 µM) | 1 µg/mL (≈ 3.13 µM) | 8 µg/mL (≈ 25.1 µM) |  | 2 µg/mL (≈ 6.26 µM) | 8 µg/mL (≈ 25.1 µM) | 4 µg/mL (≈ 12.5 µM) |  |  |  | 2 µg/mL (≈ 6.26 µM) | 4 µg/mL (≈ 12.5 µM) |  |  |  |  |  |  | 
